According to the supplement of paper PMC10307832:

Experiments:
Experiment in all cases: relative viability (nuclei count vs DMSO), 5 days (fraction); higher = more cells survive
RAF265 + Trametinib = compound: Cn1c(Nc2ccc(C(F)(F)F)cc2)nc2cc(Oc3ccnc(-c4ncc(C(F)(F)F)[nH]4)c3)ccc21 [RAF265] + CC(=O)Nc1cccc(-n2c(=O)n(C3CC3)c(=O)c3c(Nc4ccc(I)cc4F)n(C)c(=O)c(C)c32)c1 [Trametinib] (partner 0.02 µM)
Method in brief: (§1)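 After 5 days of treatment, lung cancer cells in 1536-well plates were fixed and stained in a single step (final 0.05% Triton X-100, 1% formaldehyde, 1 ug/ml Hoechst) and their nuclei counted on 4× images. Treatment had been applied by pin tool the day after seeding as one drug alone or as a fixed anchor-drug dose with five library-drug doses (not always all listed) in √10 steps. Relative viability is the nuclei count of treated wells divided by that of vehicle wells, and values are medians of duplicate plates.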

IPA-3 + Luminespib = compound: C1=CC=C2C(=C1)C=CC(=C2SSC3=C(C=CC4=CC=CC=C43)O)O [IPA-3] + CCNC(=O)c1noc(-c2cc(C(C)C)c(O)cc2O)c1-c1ccc(CN2CCOCC2)cc1 [Luminespib] (partner 0.01 µM)
Method in brief: as §1

IPA-3 + Pictilisib = compound: C1=CC=C2C(=C1)C=CC(=C2SSC3=C(C=CC4=CC=CC=C43)O)O [IPA-3] + CS(=O)(=O)N1CCN(Cc2cc3nc(-c4cccc5[nH]ncc45)nc(N4CCOCC4)c3s2)CC1 [Pictilisib] (partner 1 µM)
Method in brief: as §1

IPA-3 + Bortezomib = compound: C1=CC=C2C(=C1)C=CC(=C2SSC3=C(C=CC4=CC=CC=C43)O)O [IPA-3] + CC(C)C[C@H](NC(=O)[C@H](Cc1ccccc1)NC(=O)c1cnccn1)B(O)O [Bortezomib] (partner 0.002 µM)
Method in brief: as §1

Cell Line | relative viability (RAF265 + Trametinib; first compound 0.01 µM) | relative viability (RAF265 + Trametinib; first compound 0.03162 µM) | relative viability (RAF265 + Trametinib; first compound 0.1 µM) | relative viability (RAF265 + Trametinib; first compound 0.3162 µM) | relative viability (RAF265 + Trametinib; first compound 1 µM) | relative viability (IPA-3 + Luminespib; first compound 0.2 µM) | relative viability (IPA-3 + Luminespib; first compound 0.6325 µM) | relative viability (IPA-3 + Luminespib; first compound 2 µM) | relative viability (IPA-3 + Luminespib; first compound 6.325 µM) | relative viability (IPA-3 + Luminespib; first compound 20 µM) | relative viability (IPA-3 + Pictilisib; first compound 0.2 µM) | relative viability (IPA-3 + Pictilisib; first compound 0.6325 µM) | relative viability (IPA-3 + Pictilisib; first compound 2 µM) | relative viability (IPA-3 + Pictilisib; first compound 6.325 µM) | relative viability (IPA-3 + Pictilisib; first compound 20 µM) | relative viability (IPA-3 + Bortezomib; first compound 0.2 µM) | relative viability (IPA-3 + Bortezomib; first compound 0.6325 µM) | relative viability (IPA-3 + Bortezomib; first compound 2 µM) | relative viability (IPA-3 + Bortezomib; first compound 6.325 µM) | relative viability (IPA-3 + Bortezomib; first compound 20 µM)
NCI-H522 | 0.743 | 0.77 | 0.613 | 0.679 | 0.657 | 1.34 | 1.05 | 1.25 | 1.05 | 1.07 |  |  |  |  |  |  |  |  |  | 
NCI-H1944 | 0.454 | 0.453 | 0.386 | 0.324 | 0.246 | 0.914 | 0.651 | 0.891 | 0.827 | 0.937 | 0.351 | 0.344 | 0.371 | 0.38 | 0.345 |  |  |  |  | 
NCI-H727 | 0.403 | 0.371 | 0.392 | 0.334 | 0.317 | 0.318 | 1.29 | 0.755 | 0.33 | 0.24 | 0.583 | 0.229 | 0.456 | 0.513 | 0.402 | 0.841 | 0.788 | 0.857 | 0.866 | 1.12
NCI-H1650 | 0.786 | 0.708 | 0.568 | 0.419 | 0.43 | 0.193 | 0.179 | 0.218 | 0.208 | 0.191 | 0.811 | 0.391 | 0.569 | 0.551 | 0.736 | 0.223 | 0.193 | 0.186 | 0.283 | 0.27
HCC-827 | 0.592 | 0.483 | 0.544 |  | 0.362 | 0.881 | 0.588 | 0.627 | 0.67 | 0.745 | 1.05 | 0.976 | 0.951 | 1.19 | 1.05 | 1.1 | 0.936 | 1.01 | 0.996 | 1
HCC-366 | 0.414 | 0.302 | 0.264 | 0.251 | 0.165 |  |  |  |  |  | 0.161 | 0.152 | 0.0986 | 0.184 | 0.136 | 1.36 | 0.996 | 1.04 | 1.08 | 1.25
HARA | 0.771 | 0.484 | 0.673 | 0.353 | 0.308 | 0.991 | 0.767 | 0.0423 | 0.889 | 1.08 | 0.452 | 0.346 | 0.333 | 0.4 | 0.402 | 1.16 | 1.06 | 1.13 | 1.01 | 1.24
NCI-H322M | 0.496 | 0.421 | 0.486 | 0.507 | 0.409 | 0.964 | 0.722 | 1.08 | 1.02 | 1.13 | 0.501 | 0.272 | 0.508 | 0.481 | 0.572 | 1.31 | 1.21 | 1.19 | 1.32 | 1.23
LXF-289 | 0.667 | 0.692 | 0.551 | 0.488 | 0.339 | 0.844 | 0.648 | 0.646 | 0.814 | 0.691 | 0.85 | 0.703 | 0.772 | 0.791 | 0.918 | 1.03 | 0.954 | 1.04 | 1.04 | 1.1
PC-3 [JPC-3] | 0.708 | 0.708 | 0.761 | 0.469 | 0.466 | 0.742 | 0.666 | 0.719 | 0.641 | 0.801 | 0.863 | 0.774 | 0.696 | 0.668 | 0.772 | 0.92 | 0.885 | 0.786 | 0.824 | 0.873
CAL-12T | 0.334 | 0.296 | 0.273 | 0.209 | 0.333 | 0.724 | 0.287 | 0.449 | 0.375 | 0.488 | 0.442 | 0.494 | 0.397 | 0.441 | 0.348 | 0.956 | 0.987 | 0.847 | 0.935 | 1.15
COR-L 105 | 0.47 | 0.428 | 0.429 | 0.38 | 0.348 | 0.866 | 0.858 | 0.771 | 0.826 | 0.97 | 0.465 | 0.422 | 0.393 | 0.416 | 0.351 | 0.856 | 0.885 | 0.7 | 0.879 | 0.603
NCI-H2347 | 0.266 | 0.292 | 0.283 | 0.22 | 0.227 | 0.525 | 0.0323 | 0.357 | 0.269 | 0.45 | 0.423 | 0.644 | 0.522 | 0.717 | 0.605 | 0.916 | 1.01 | 1.12 | 0.937 | 1.3
NCI-H2126 | 0.635 | 0.526 | 0.539 | 0.506 | 0.342 | 0.998 | 0.819 | 0.921 | 0.902 | 1.1 | 0.48 | 0.505 | 0.449 | 0.503 | 0.512 | 1.19 | 1.11 | 1.13 | 1.11 | 1.19
NCI-H838 | 0.542 | 0.511 | 0.518 | 0.462 | 0.39 | 0.238 | 0.218 | 0.306 | 0.276 | 0.378 | 0.533 | 0.455 | 0.451 | 0.463 | 0.337 | 1.89 | 0.847 | 0.667 | 1.03 | 0.815
A549 |  |  |  |  |  |  |  |  |  |  | 0.607 | 0.445 | 0.713 | 0.483 | 0.696 |  |  |  |  | 
NCI-H1648 | 0.534 | 0.455 | 0.535 | 0.387 | 0.29 |  |  |  |  |  |  |  |  |  |  |  |  |  |  | 
NCI-H1623 |  |  |  |  |  | 0.574 | 0.481 | 0.675 | 0.516 | 0.556 |  |  |  |  |  |  |  |  |  | 
SK-LU-1 | 0.559 | 0.419 | 0.393 | 0.274 | 0.257 | 0.207 | 0.17 | 0.225 | 0.161 | 0.228 | 0.617 | 0.612 | 0.579 | 0.712 | 0.645 | 1.14 | 1.21 | 1.09 | 1.19 | 1.62
